{"source": "patent US8609695B2", "about": "“Methods of treating and/or suppressing insulin resistance” (Endorecherche, Inc., priority 1999, dated 2013)", "key": {"[1]": {"tested_on": "ovariectomized female rats", "assay": "SERM comparison, energy balance and lipid-lipoprotein metabolism (Example 10)", "type": "in vivo, Rattus norvegicus", "settings": "OVX rats, 20 days", "summary_of_the_method": "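Ovariectomized rats on a high-carbohydrate diet dosed by oral gavage 0.5 mg/rat in 0.4% methylcellulose for 20 days; sham-operated group included. Body weight and food intake every 2 days, DEXA body fat on Day 17. Necropsy on day 21, ~24 h post-dose after 6 h fast: serum lipids, glucose, insulin, leptin, tissue weights.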"}, "[2]": {"tested_on": "human breast cancer MCF-7 cells", "assay": "Proliferation of MCF-7 cell line, DNA content (Example 12)", "type": "cell-based", "text": "MCF-7 human breast cancer cells were obtained from the American Type Culture Collection # HTB 22 at passage 147 and routinely grown in phenol red-free Dulbecco's Modified Eagle's-Ham's F12 medium, the supplements mentioned above and 5% FBS. The MCF-7 human breast adenocarcinoma cell line was derived from the pleural effusion of a patient. MCF-7 cells were used between passages 148 and 165 and subcultured weekly.\nCells in their late logarithmic growth phase were harvested with 0.1% pancreatin (Sigma) and resuspended in the appropriate medium containing 50 ng bovine insulin/ml and 5% (v/v) FBS treated twice with dextran-coated charcoal to remove endogenous steroids. Cells were plated in 24-well Falcon plastic culture plates (2 cm2/well) at the indicated density and allowed to adhere to the surface of the plates for 72 h. […] Control cells received only the ethanolic vehicle (0.1% EtOH,v/v). Cells were incubated for the specified time intervals with medium changes at 2- or 3-day intervals. Cell number was determined by measurement of DNA content.\nDose-response curves as well IC50 values were calculated using a weighted iterative nonlinear least-squares regression. All results are expressed as means±SEM."}, "OVX Sprague-Dawley Rat": {"tested_on": "OVX Sprague-Dawley Rat", "assay": "11-month combination treatment DHEA + EM-800, body weight (Example 2)", "type": "in vivo", "settings": "OVX rats, 11 months", "text": "1.1 Test Compounds: • DHEA: Available from Steraloids Inc. Wilton, N.H. Lot: H137; • EM-800 is synthesized at the UCPO Department of Lab. of Mol. Endo., CHUL.\n1.2 Vehicle • a) Gelatin: Lab-Grade, ACP Chemicals Inc., Montreal, Qc. Lot# F0195 • b) Ethanol: Commercial Alcohols Inc., Brampton, Ontario. Lot No. 11296 • c) Polyethylene Glycol-600 (PEG-600): Omega Chemical Company Inc., Lévis, Quebec. Lot#: 00-0117-EZ • d) Normal Saline: 0.9% Sodium Chloride irrigation USP. Abbott Laboratories Limited, St-Laurent, Qc. • e) Propylene Glycol (1, 2-Propanediol, PPG): Sigma Chemical Co., St-Louis, Mo. • g) Vehicle 1: 4% ETOH-4% PEG-600-1% gelatin-0.9% NaCl—H2O for Subcutaneous Injection. • h) Vehicle 2: 50% ETOH-50% PPG for Topical Application.\n3.1 Perapartion of Vehicle and Test Articles • a) Preparation of EM-800: • EM-800 or both of them will be dissolved in ETOH:PEG-600 (1:1) with agitation on Fisher Scientific Stirring Hot Plate, then, 1% GNS will be added to the required volume. • b) Preparation of DHEA: • DHEA is dissolved in 50% ETOH, 50% PPG by agitation.\n3.2 Animal Preparation and Treatments • Animals will be treated once daily as indicated on Item 6.1. DHEA, prepared in 50% ETOH, 50% PPG, will be percutaneously applied (P.C.) to corresponding animals once daily (I.D.) in a volume of 0.5 ml. […]"}, "[3]": {"settings": "high carbohydrate diet, 0.5 mg/rat oral gavage"}}}
{"smiles": "CC1=C(c2ccc(O)cc2)[C@H](c2ccc(OCCN3CCCCC3)cc2)Oc2cc(O)ccc21.Cl", "note": "[EM-652.HCl, (S)-(+)-7-hydroxy-3-(4′-hydroxyphenyl)-4-methyl-2-(4″-(2′″-piperidino-ethoxy)phenyl)-2H-1-benxopyran hydrochloride]", "values": [{"measurement": "Serum insulin (in words)", "setting": "[1]; 0.5 mg/rat", "result": "decreased"}, {"measurement": "Brown adipose tissue Lipoprotein lipase activity", "setting": "[1]; [3]", "result": "900 ± 91", "unit": "μU/g protein"}, {"measurement": "Brown adipose tissue weight", "setting": "[1]; [3]", "result": "0.339 ± 0.038", "unit": "g"}, {"measurement": "Cumulative food intake", "setting": "[1]; [3]", "result": "324 ± 5", "unit": "g"}, {"measurement": "Serum glucose", "setting": "[1]; [3]", "result": "15.9 ± 1.4", "unit": "mmol/L"}, {"measurement": "Serum insulin", "setting": "[1]; [3]", "result": "0.122 ± 0.021", "unit": "nmol/L"}, {"measurement": "Serum leptin", "setting": "[1]; [3]", "result": "1.10 ± 0.22", "unit": "ng/mL"}, {"measurement": "Serum triglycerides", "setting": "[1]; [3]", "result": "0.91 ± 0.17", "unit": "mmol/L"}, {"measurement": "Soleus muscle Lipoprotein lipase activity", "setting": "[1]; [3]", "result": "14.5 ± 4.1", "unit": "μU/g protein"}, {"measurement": "Soleus muscle weight", "setting": "[1]; [3]", "result": "0.118 ± 0.018", "unit": "g"}, {"measurement": "Total weight", "setting": "[1]; [3]", "result": "252 ± 4", "unit": "g"}, {"measurement": "VastusLateralis muscle weight", "setting": "[1]; [3]", "result": "1.00 ± 0.047", "unit": "g"}, {"measurement": "White adipose tissue inguinal Lipoprotein lipase activity", "setting": "[1]; [3]", "result": "684 ± 216", "unit": "μU/g protein"}, {"measurement": "White adipose tissue inguinal weight", "setting": "[1]; [3]", "result": "0.244 ± 0.028", "unit": "g"}, {"measurement": "White adipose tissue retroperitoneal Lipoprotein lipase activity", "setting": "[1]; [3]", "result": "1917 ± 365", "unit": "μU/g protein"}, {"measurement": "White adipose tissue retroperitoneal weight", "setting": "[1]; [3]", "result": "1.32 ± 0.21", "unit": "g"}, {"measurement": "IC50", "setting": "[2]; Homo sapiens, MCF7, read-out: Inhibition of 1 nM E2 stimulation of DNA by tested compounds IC50", "result": 796, "unit": "pM"}, {"measurement": "EC50", "setting": "[2]; Homo sapiens, MCF7, MCF-7 cells, text summary of table 12, read-out: EC50 of inhibition (antiestrogen activity)", "result": 800, "unit": "pM"}, {"measurement": "Stimulation of DNA by tested compounds % of 1 nM E2 stimulation", "setting": "[2]; MCF-7 cells, absence of E2", "result": "N.S."}]}
{"smiles": "C[C@]12CC[C@H](O)CC1=CC[C@@H]1[C@@H]2CC[C@]2(C)C(=O)CC[C@@H]12", "note": "[DHEA, dehydroepiandrosterone]", "values": [{"measurement": "inhibition of the OVX stimulation of body weight", "setting": "OVX Sprague-Dawley Rat; DHEA 12.5 mg daily, EM-800 daily", "result": 87, "unit": "%"}, {"measurement": "Total weight", "setting": "OVX Sprague-Dawley Rat; DHEA 12.5 mg/day/rat percutaneous, EM-800 100 μg/day/rat s.c.", "result": "490.8 ± 24.1", "unit": "g"}]}
